In patent US11180462B2, “Microbiocidal oxadiazole derivatives” (SYNGENTA PARTICIPATIONS AG, priority 2015, dated 2021) one finds inhibition of growth and pest or weed control data, which are given here for 25 molecules.

The structures appear in SMILES notation.

Assay [1] deals with Glomerella lagenarium (Colletotrichum lagenarium). As to the kind of experiment: Fungicidal activity against Glomerella lagenarium (Colletotrichum lagenarium) liquid culture / cucumber / preventative (anthracnose). The class given is cell-based. Conditions: Colletotrichum orbiculare; 20 ppm in the applied formulation; liquid culture (PDB), growth inhibition measured photometrically after 3 to 4 days; compared to untreated control; read-out: disease control. The gist of the method:
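Photometric read-out of fungal growth after 2–7 days, expressed as percent antifungal activity versus untreated check. Cryo-stored conidia in PDB; compound at 20 ppm; dark, 24 °C, 96% RH.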

Another assay relates to Phakopsora Pachyrhizi. The experiment in a line: Fungicidal activity against Phakopsora pachyrhizi / soybean / leaf disc preventative (Asian soybean rust). Conditions: foliar, 200 ppm in the applied formulation, soybean leaf disks, compared to untreated control leaf disks, read-out: disease control. Type of assay: in vivo. As to the method: Leaf disks or leaf segments of various plant species are cut from plants grown in a greenhouse. The cut leaf disks or segments are placed in multiwell plates (24-well format) onto water agar. The leaf disks are sprayed with a test solution before (preventative) or after (curative) inoculation. Compounds to be tested are prepared as DMSO solutions (max. 10 mg/ml) which are diluted to the appropriate concentration with 0.025% Tween20 just before spraying. The inoculated leaf disks or segments are incubated under defined conditions (temperature, relative humidity, light, etc.) according to the respective test system. A single evaluation of disease level is carried out 3 to 14 days after inoculation, depending on the pathosystem. Percent disease control relative to the untreated check leaf disks or segments is then calculated.
Fungicidal Activity Against Phakopsora Pachyrhizi Soybean/Leaf Disc Preventative (Asian Soybean Rust)
Soybean leaf disks are placed on water agar in multiwell plates (24-well format) and sprayed with the formulated test compound diluted in water. One day after application leaf discs are inoculated by spraying a spore suspension on the lower leaf surface. After an incubation period in a climate cabinet of 24-36 hours in darkness at 20° C. and 75% rh leaf disc are kept at 20° C. with 12 h light/day and 75% rh. The activity of a compound is assessed as percent disease control compared to untreated when an appropriate level of disease damage appears in untreated check leaf disks (12 to 14 days after application).
The following compounds at 200 ppm in the applied formulation give at least 80% disease control in this test when compared to untreated control leaf disks under the same conditions, which show extensive disease development.

On to `CC1CC1C(=O)N(Cc1ccc(-c2noc(C(F)(F)F)n2)cc1)CC(F)(F)F` (stereo not shown) [Compound 1.695, 2-methyl-N-(2,2,2-trifluoroethyl)-N-[[4-[5-(trifluoromethyl)-1,2,4-oxadiazol-3-yl]phenyl]methyl]-cyclopropane-carboxamide], for which the inhibition of growth at 20 ppm in assay [1] is no less than 80%. In addition, the pest or weed control at 200 ppm with Phakopsora Pachyrhizi is no less than 80%.

For `CCCCON(Cc1ccc(-c2noc(C(F)(F)F)n2)cc1)C(=O)CCOC` [Compound 1.637, N-butoxy-3-methoxy-N-[[4-[5-(trifluoromethyl)-1,2,4-oxadiazol-3-yl]phenyl]methyl]-propanamide], the inhibition of growth at 20 ppm in assay [1] was no less than 80%. For the same molecule, in the assay on Phakopsora Pachyrhizi, the pest or weed control at 200 ppm was no less than 80%. Consider `COCCCC(=O)N(Cc1ccc(-c2noc(C(F)(F)F)n2)cc1)CC(F)(F)F` [Compound 1.700, 4-methoxy-N-(2,2,2-trifluoroethyl)-N-[[4-[5-(trifluoromethyl)-1,2,4-oxadiazol-3-yl]phenyl]methyl]-butanamide], for which the inhibition of growth at 20 ppm in assay [1] was no less than 80%. In addition, the pest or weed control at 200 ppm with Phakopsora Pachyrhizi is no less than 80%.

With `C#CCN(Cc1ccc(-c2noc(C(F)(F)F)n2)cc1)C(=O)C1CC1c1ccccc1` (stereo not shown) [Compound 1.166, 2-phenyl-N-prop-2-ynyl-N-[[4-[5-(trifluoromethyl)-1,2,4-oxadiazol-3-yl]phenyl]methyl]-cyclopropane-carboxamide], the inhibition of growth at 20 ppm in assay [1] is no less than 80%. Further, the pest or weed control at 200 ppm in the assay with Phakopsora Pachyrhizi was no less than 80%. Consider `O=C(C1CCC1)N(Cc1ccc(-c2noc(C(F)(F)F)n2)cc1)CC(F)(F)F` [Compound 1.694, N-(2,2,2-trifluoroethyl)-N-[[4-[5-(trifluoromethyl)-1,2,4-oxadiazol-3-yl]phenyl]methyl]-cyclobutane-carboxamide], for which the inhibition of growth at 20 ppm in assay [1] was no less than 80%. Moreover, in the assay with Phakopsora Pachyrhizi, the pest or weed control at 200 ppm was no less than 80%. As to `C#CCN(Cc1ccc(-c2noc(C(F)(F)F)n2)cc1)C(=O)CC1CC1(F)F` (stereo not shown) [Compound 1.197, 2-(2,2-difluorocyclopropyl)-N-prop-2-ynyl-N-[[4-[5-(trifluoromethyl)-1,2,4-oxadiazol-3-yl]phenyl]methyl]-acetamide], the pest or weed control at 200 ppm with Phakopsora Pachyrhizi is no less than 80%. `CCC(C)C(=O)N(Cc1ccc(-c2noc(C(F)(F)F)n2)cc1)CC(F)(F)F` (stereo not shown) [Compound 1.697, 2-methyl-N-(2,2,2-trifluoroethyl)-N-[[4-[5-(trifluoromethyl)-1,2,4-oxadiazol-3-yl]phenyl]methyl]-butanamide]: the inhibition of growth at 20 ppm in assay [1] is no less than 80%. Besides, the pest or weed control at 200 ppm in the assay on Phakopsora Pachyrhizi was no less than 80%. `CCCCON(Cc1ccc(-c2noc(C(F)(F)F)n2)cc1)C(=O)CC(F)(F)F` [Compound 1.648, N-butoxy-3,3,3-trifluoro-N-[[4-[5-(trifluoromethyl)-1,2,4-oxadiazol-3-yl]phenyl]methyl]-propanamide]: the inhibition of growth at 20 ppm in assay [1] is no less than 80%. Besides, the pest or weed control at 200 ppm in the assay with Phakopsora Pachyrhizi was no less than 80%. Consider `O=C(CC1CCCC1)N(Cc1ccc(-c2noc(C(F)(F)F)n2)cc1)C1CC1` [Compound 1.84, 2-cyclopentyl-N-cyclopropyl-N-[[4-[5-(trifluoromethyl)-1,2,4-oxadiazol-3-yl]phenyl]methyl]-acetamide], for which, in assay [1], the inhibition of growth at 20 ppm was no less than 80%. Further, in the assay with Phakopsora Pachyrhizi, the pest or weed control at 200 ppm is no less than 80%.

Consider `CCCCON(Cc1ccc(-c2noc(C(F)(F)F)n2)cc1)C(=O)CCCOC` [Compound 1.643, N-butoxy-4-methoxy-N-[[4-[5-(trifluoromethyl)-1,2,4-oxadiazol-3-yl]phenyl]methyl]-butanamide], for which the inhibition of growth at 20 ppm in assay [1] was no less than 80%. In the assay on Phakopsora Pachyrhizi, the pest or weed control at 200 ppm was no less than 80%.

Take `CCC(CC(=O)N(Cc1ccc(-c2noc(C(F)(F)F)n2)cc1)OC)C(F)(F)F` (stereo not shown) [Compound 1.82, N-methoxy-3-(trifluoromethyl)-N-[[4-[5-(trifluoromethyl)-1,2,4-oxadiazol-3-yl]phenyl]methyl]-pentamide]: the inhibition of growth at 20 ppm in assay [1] is no less than 80%. Also, the pest or weed control at 200 ppm in the assay with Phakopsora Pachyrhizi was no less than 80%.

As to `CCCN(Cc1ccc(-c2noc(C(F)(F)F)n2)cc1)C(=O)C1CC1C` (stereo not shown) [Compound 1.657, 2-methyl-N-propyl-N-[[4-[5-(trifluoromethyl)-1,2,4-oxadiazol-3-yl]phenyl]methyl]-cyclopropane-carboxamide], in assay [1], the inhibition of growth at 20 ppm was no less than 80%. Further, the pest or weed control at 200 ppm in the assay on Phakopsora Pachyrhizi is no less than 80%. Turning to `COCCCC(=O)N(Cc1ccc(-c2noc(C(F)(F)F)n2)cc1)C1COC1` [Compound 1.746, 4-methoxy-N-(oxetan-3-yl)-N-[[4-[5-(trifluoromethyl)-1,2,4-oxadiazol-3-yl]phenyl]methyl]-butanamide], the pest or weed control at 200 ppm with Phakopsora Pachyrhizi was no less than 80%. With `CCC(COC)C(=O)N(Cc1ccc(-c2noc(C(F)(F)F)n2)cc1)CC(F)(F)F` (stereo not shown) [Compound 1.699, 2-(methoxymethyl)-N-(2,2,2-trifluoroethyl)-N-[[4-[5-(trifluoromethyl)-1,2,4-oxadiazol-3-yl]phenyl]methyl]-butanamide], the inhibition of growth at 20 ppm in assay [1] is no less than 80%. For the same molecule, the pest or weed control at 200 ppm with Phakopsora Pachyrhizi is no less than 80%. Take `CCCCON(Cc1ccc(-c2noc(C(F)(F)F)n2)cc1)C(=O)C1(C)COC1` [Compound 1.641, N-butoxy-3-methyl-N-[[4-[5-(trifluoromethyl)-1,2,4-oxadiazol-3-yl]phenyl]methyl]-oxetane-3-carboxamide]: the inhibition of growth at 20 ppm in assay [1] was no less than 80%. Besides, in the assay with Phakopsora Pachyrhizi, the pest or weed control at 200 ppm was no less than 80%. With `CCCCON(Cc1ccc(-c2noc(C(F)(F)F)n2)cc1)C(=O)C(CC)COC` (stereo not shown) [Compound 1.642, N-butoxy-2-(methoxymethyl)-N-[[4-[5-(trifluoromethyl)-1,2,4-oxadiazol-3-yl]phenyl]methyl]-butanamide], the inhibition of growth at 20 ppm in assay [1] was no less than 80%. For the same molecule, the pest or weed control at 200 ppm in the assay with Phakopsora Pachyrhizi is no less than 80%. In the case of `CCCCON(Cc1ccc(-c2noc(C(F)(F)F)n2)cc1)C(=O)C1(C#N)CC1` [Compound 1.646, N-butoxy-1-cyano-N-[[4-[5-(trifluoromethyl)-1,2,4-oxadiazol-3-yl]phenyl]methyl]-cyclopropane-carboxamide], in assay [1], the inhibition of growth at 20 ppm was no less than 80%. Moreover, the pest or weed control at 200 ppm with Phakopsora Pachyrhizi was no less than 80%. In the case of `CCON(Cc1ccc(-c2noc(C(F)(F)F)n2)cc1)C(=O)CC1CC1` [Compound 1.632, 2-cyclopropyl-N-ethoxy-N-[[4-[5-(trifluoromethyl)-1,2,4-oxadiazol-3-yl]phenyl]methyl]-acetamide], in assay [1], the inhibition of growth at 20 ppm was no less than 80%. For the same molecule, in the assay with Phakopsora Pachyrhizi, the pest or weed control at 200 ppm is no less than 80%.

Take `CC(C)(C)CC(=O)N(Cc1ccc(-c2noc(C(F)(F)F)n2)cc1)CC1CC1` [Compound 1.224, N-(cyclopropylmethyl)-3,3-dimethyl-N-[[4-[5-(trifluoromethyl)-1,2,4-oxadiazol-3-yl]phenyl]methyl]-butanamide]: the inhibition of growth at 20 ppm in assay [1] is no less than 80%. Further, the pest or weed control at 200 ppm in the assay with Phakopsora Pachyrhizi was no less than 80%. With `O=C(ON(Cc1ccc(-c2noc(C(F)(F)F)n2)cc1)C(=O)c1ccccc1Cl)c1ccccc1Cl` [Compound 1.755, [(2-chlorobenzoyl)-[[4-[5-(trifluoromethyl)-1,2,4-oxadiazol-3-yl]phenyl]methyl]-amino] 2-chlorobenzoate], in assay [1], the inhibition of growth at 20 ppm was no less than 80%. The pest or weed control at 200 ppm in the assay with Phakopsora Pachyrhizi was no less than 80%. As for `CCC(C)(CC)C(=O)N(Cc1ccc(-c2noc(C(F)(F)F)n2)cc1)OC` [Compound 1.58, 2-ethyl-N-methoxy-2-methyl-N-[[4-[5-(trifluoromethyl)-1,2,4-oxadiazol-3-yl]phenyl]methyl]-butanamide], the inhibition of growth at 20 ppm in assay [1] was no less than 80%. The pest or weed control at 200 ppm in the assay on Phakopsora Pachyrhizi is no less than 80%. Regarding `CCCCON(Cc1ccc(-c2noc(C(F)(F)F)n2)cc1)C(=O)CC#N` [Compound 1.645, N-butoxy-2-cyano-N-[[4-[5-(trifluoromethyl)-1,2,4-oxadiazol-3-yl]phenyl]methyl]-acetamide], the inhibition of growth at 20 ppm in assay [1] was no less than 80%. Besides, the pest or weed control at 200 ppm with Phakopsora Pachyrhizi was no less than 80%. As for `C#CCN(Cc1ccc(-c2noc(C(F)(F)F)n2)cc1)C(=O)C(C)(CC)CC` [Compound 1.195, 2-ethyl-2-methyl-N-prop-2-ynyl-N-[[4-[5-(trifluoromethyl)-1,2,4-oxadiazol-3-yl]phenyl]methyl]-butanamide], the inhibition of growth at 20 ppm in assay [1] is no less than 80%. Also, in the assay with Phakopsora Pachyrhizi, the pest or weed control at 200 ppm was no less than 80%. In the case of `C#CCOC(=O)NC(C(=O)N(Cc1ccc(-c2noc(C(F)(F)F)n2)cc1)CC1CC1)C(C)C` (stereo not shown) [Compound 1.241, prop-2-ynyl N-[1-(cyclopropylmethyl-[[4-[5-(trifluoromethyl)-1,2,4-oxadiazol-3-yl]phenyl]methyl]-carbamoyl]-2-methyl-propyl]carbamate], the pest or weed control at 200 ppm in the assay with Phakopsora Pachyrhizi was no less than 80%.

In the case of `O=C(OCCN(Cc1ccc(-c2noc(C(F)(F)F)n2)cc1)C(=O)c1ccccc1Cl)c1ccccc1Cl` [Compound 1.710, 2-[(2-chlorobenzoyl)-[[4-[5-(trifluoromethyl)-1,2,4-oxadiazol-3-yl]phenyl]methyl]-amino]ethyl 2-chlorobonzoato], the pest or weed control at 200 ppm in the assay on Phakopsora Pachyrhizi was no less than 80%.
